{
  "source": "paper PMC10967270",
  "about": "“Intrapulmonary and Systemic Pharmacokinetics of Colistin Following Nebulization of Low-Dose Colistimethate Sodium in Patients with Ventilator-Associated Pneumonia Caused by Carbapenem-Resistant Acinetobacter baumannii” (Antibiotics, 2024)",
  "tested_on": "ventilator-associated pneumonia caused by carbapenem-resistant Acinetobacter baumannii",
  "assay": "Clinical and microbiological outcomes of CMS nebulization",
  "assay_type": "in vivo",
  "settings": "of 20 patients",
  "protocol": "Patients were treated with CMS (Xellia Pharmaceuticals ApS, Copenhagen, Denmark) at a total of 3.75 MIU (equivalent to 300 mg of CMS or 112.5 mg of CBA) administered four times a day at 6 h intervals. CMS was dissolved in 5 mL of normal saline and administered over 30 min through a jet nebulizer (Sileo 54, Macjin Medical, Seoul, Republic of Korea) connected to the ventilator circuit. Bronchoalveolar lavage fluid (BALF) was obtained by instilling 20 mL of normal saline into the right middle lobe or left lingular segmental bronchus using a bronchoscope, followed by immediate aspiration and collection into a syringe. Samples were collected immediately before the nebulization treatment and at 1, 3, and 5 h after the start of the treatment. Blood samples were collected before the nebulization treatment and at 1, 2, 3, and 5 h thereafter. Both BALF and blood samples were centrifuged at 3000× g for 10 min within 1 h of collection and the supernatant was isolated. Samples were then stored in a refrigerator at a temperature below −70 °C.\nClinical outcomes were classified as cured (resolution of symptoms/signs of pneumonia plus improvement or lack of progression in radiologic pulmonary infiltrates, and antibiotics-free), improved (significant improvement of symptoms/signs of pneumonia plus improvement or lack of progression in radiologic abnormalities, but remaining on antibiotic treatment), and failed (persistent or worsening of symptoms/signs of pneumonia, persistent or progression of radiologic pulmonary infiltrates that required additional antibiotic therapy, or death).",
  "data": [
    {"substance": "Colistimethate sodium [CMS]", "values": [
      {"measurement": "Clinical outcomes: failed, number of patients", "setting": "nebulized CMS 3.75 MIU/day", "value": 4},
      {"measurement": "Microbiologic outcomes: eradication, number of patients", "setting": "nebulized CMS 3.75 MIU/day", "value": 8},
      {"measurement": "Microbiologic outcomes: indeterminate, number of patients", "setting": "nebulized CMS 3.75 MIU/day", "value": 2},
      {"measurement": "Microbiologic outcomes: persistence, number of patients", "setting": "nebulized CMS 3.75 MIU/day", "value": 10},
      {"measurement": "Survival: no, number of patients", "setting": "nebulized CMS 3.75 MIU/day", "value": 15},
      {"measurement": "Survival: yes, number of patients", "setting": "nebulized CMS 3.75 MIU/day", "value": 5},
      {"measurement": "Clinical outcomes: cured, number of patients", "setting": "nebulized CMS 3.75 MIU/day in four doses at 6 h intervals", "value": 16}
    ]}
  ]
}
